Measured values from PMC12147714 (FEMS Microbiology Letters, 2025).

Experiments:
Assay type in all cases: cell-based, Pseudomonas aeruginosa
[1] = system: clinical isolate D1 (IMP-1); assay: microbe, parasite or virus in culture
Experimental: (§1) Thirty-two carbapenem-resistant clinical P. aeruginosa, with previously defined carbapenem-resistance mechanisms, were included.
(§2) The fractional inhibitory concentration index (FICI) was calculated and interpreted as follows: the MIC of drug A in combination/the MIC of drug A alone + the MIC of drug B in combination/the MIC drug B alone. FICI ≤ 0.5 = synergy; 0.5 < FICI ≤ 1 = additive; FICI 1 < FICI < 2 = indifference, and FICI ≥ 2 = antagonism. All susceptibility testing/checkerboard assays were performed in triplicate.

[2] = system: clinical isolate D10 (IMP-7); assay: microbe, parasite or virus in culture
Experimental: as §1, §2

[3] = system: clinical isolate D11 (IMP-7); assay: microbe, parasite or virus in culture
Experimental: as §1, §2

[4] = system: clinical isolate D12 (IMP-7); assay: microbe, parasite or virus in culture
Experimental: as §1, §2

[5] = system: clinical isolate D13 (IMP-7); assay: microbe, parasite or virus in culture
Experimental: as §1, §2

[6] = system: clinical isolate D14 (IMP-10); assay: microbe, parasite or virus in culture
Experimental: as §1, §2

[7] = system: clinical isolate D15 (IMP-13); assay: microbe, parasite or virus in culture
Experimental: as §1, §2

[8] = system: clinical isolate D16 (IMP-13); assay: microbe, parasite or virus in culture
Experimental: as §1, §2

[9] = system: clinical isolate D17 (IMP-13); assay: microbe, parasite or virus in culture
Experimental: as §1, §2

[10] = system: clinical isolate D18 (IMP-18); assay: microbe, parasite or virus in culture
Experimental: as §1, §2

[11] = system: clinical isolate D19 (IMP-4, OXA-181, VIM-5); assay: microbe, parasite or virus in culture
Experimental: as §1, §2

[12] = system: clinical isolate D2 (IMP-1); assay: microbe, parasite or virus in culture
Experimental: as §1, §2

[13] = system: clinical isolate D20 (NDM-1); assay: microbe, parasite or virus in culture
Experimental: as §1, §2

[14] = system: clinical isolate D21 (NDM-1); assay: microbe, parasite or virus in culture
Experimental: as §1, §2

[15] = system: clinical isolate D22 (NDM-1, VIM-2); assay: microbe, parasite or virus in culture
Experimental: as §1, §2

[16] = system: clinical isolate D23 (VIM-2); assay: microbe, parasite or virus in culture
Experimental: as §1, §2

[17] = system: clinical isolate D24 (VIM-2); assay: microbe, parasite or virus in culture
Experimental: as §1, §2

[18] = system: clinical isolate D25 (VIM-4); assay: microbe, parasite or virus in culture
Experimental: as §1, §2

[19] = system: clinical isolate D26 (VIM-4); assay: microbe, parasite or virus in culture
Experimental: as §1, §2

[20] = system: clinical isolate D27 (VIM-36); assay: microbe, parasite or virus in culture
Experimental: as §1, §2

[21] = system: clinical isolate D28 (GES-5, OXA-181); assay: microbe, parasite or virus in culture
Experimental: as §1, §2

[22] = system: clinical isolate D29 (KPC-2); assay: microbe, parasite or virus in culture
Experimental: as §1, §2

[23] = system: clinical isolate D3 (IMP-1); assay: microbe, parasite or virus in culture
Experimental: as §1, §2

[24] = system: clinical isolate D30 (KPC-2); assay: microbe, parasite or virus in culture
Experimental: as §1, §2

[25] = system: clinical isolate D31 (Permeability); assay: microbe, parasite or virus in culture
Experimental: as §1, §2

[26] = system: clinical isolate D32 (Permeability); assay: microbe, parasite or virus in culture
Experimental: as §1, §2

[27] = system: clinical isolate D4 (IMP-1); assay: microbe, parasite or virus in culture
Experimental: as §1, §2

[28] = system: clinical isolate D5 (IMP-1); assay: microbe, parasite or virus in culture
Experimental: as §1, §2

[29] = system: clinical isolate D6 (IMP-1); assay: microbe, parasite or virus in culture
Experimental: as §1, §2

[30] = system: clinical isolate D7 (IMP-1); assay: microbe, parasite or virus in culture
Experimental: as §1, §2

[31] = system: clinical isolate D8 (IMP-4); assay: microbe, parasite or virus in culture
Experimental: as §1, §2

[32] = system: clinical isolate D9 (IMP-7); assay: microbe, parasite or virus in culture
Experimental: as §1, §2

[33] = system: PAO1 and PAO1 TnoprD producing one of eight different carbapenemases; assay: MIC and checkerboard, isogenic strains as a group
Source text: Pseudomonas aeruginosa isolate, PAO1, was used alongside its isogenic counterpart, PAO1 TnoprD, which lacks a functional OprD porin (Held et al. [2012]). β-lactamases, blaIMP-1, blaIMP-10, blaIMP-13, blaNDM-1, blaSPM-1, blaVIM-1, blaVIM-2, and blaKPC-2, had previously been cloned into the pUCP24 shuttle vector (Bouvier et al. [2025]), and were transformed by electroporation into both PAO1 and PAO1 TnoprD.
as §2, with “. MICs of DMSA, CAZ, FEP and checkerboards for the combinations, CAZ/DMSA and FEP/DMSA, were performed for all clinical isolates. All susceptibility testing results were interpreted according to CLSI guidelines (CLSI [2023]). The” for “The”

Compound CC(C)(O/N=C(\C(=O)N[C@@H]1C(=O)N2C(C(=O)[O-])=C(C[n+]3ccccc3)CS[C@H]12)c1csc(N)n1)C(=O)O [CAZ, ceftazidime] has an MIC ([1]; Pseudomonas aeruginosa) of 1020 µg/mL, an MIC ([2]; Pseudomonas aeruginosa) of 512 µg/mL and an MIC ([3]; Pseudomonas aeruginosa) of 512 µg/mL. It also gave an MIC ([4]; Pseudomonas aeruginosa) of 512 µg/mL, an MIC ([5]; Pseudomonas aeruginosa) of 512 µg/mL and an MIC ([6]; Pseudomonas aeruginosa) of 1020 µg/mL. It also gave an MIC ([7]; Pseudomonas aeruginosa) of 512 µg/mL, an MIC ([8]; Pseudomonas aeruginosa) of 512 µg/mL and an MIC ([9]; Pseudomonas aeruginosa) of 256 µg/mL. For the same compound, the MIC ([10]; Pseudomonas aeruginosa) was 1020 µg/mL, the MIC ([11]; Pseudomonas aeruginosa) was 4100 µg/mL and the MIC ([12]; Pseudomonas aeruginosa) was 1020 µg/mL. The MIC ([13]; Pseudomonas aeruginosa) was 4100 µg/mL, the MIC ([14]; Pseudomonas aeruginosa) was 4100 µg/mL and the MIC ([15]; Pseudomonas aeruginosa) was 4100 µg/mL. For the same compound, the MIC ([16]; Pseudomonas aeruginosa) was 32 µg/mL, the MIC ([17]; Pseudomonas aeruginosa) was 32 µg/mL and the MIC ([18]; Pseudomonas aeruginosa) was 32 µg/mL. For the same compound, the MIC ([19]; Pseudomonas aeruginosa) was 128 µg/mL, the MIC ([20]; Pseudomonas aeruginosa) was 512 µg/mL and the MIC ([21]; Pseudomonas aeruginosa) was 16 µg/mL. The MIC ([22]; Pseudomonas aeruginosa) was 16 µg/mL, the MIC ([23]; Pseudomonas aeruginosa) was 512 µg/mL and the MIC ([24]; Pseudomonas aeruginosa) was 64 µg/mL. The MIC ([25]; Pseudomonas aeruginosa) was 128 µg/mL, the MIC ([26]; Pseudomonas aeruginosa) was 16 µg/mL and the MIC ([27]; Pseudomonas aeruginosa) was 1020 µg/mL. It also gave an MIC ([28]; Pseudomonas aeruginosa) of 512 µg/mL, an MIC ([29]; Pseudomonas aeruginosa) of 512 µg/mL and an MIC ([30]; Pseudomonas aeruginosa) of 1020 µg/mL. For the same compound, the MIC ([31]; Pseudomonas aeruginosa) was 2050 µg/mL, the MIC ([32]; Pseudomonas aeruginosa) was 256 µg/mL and the “interaction with DMSA as indicated by the FICIs” value ([33]; SPM-1 and VIM-1 strains, DMSA 200 mg/l) was “synergy (FICI ≤ 0.5 = synergy)”. The “interaction with DMSA as indicated by the FICIs” value ([33]; strains producing IMP-1, IMP-10 or IMP-13, with and without functional OprD, all three DMSA concentrations (100, 200, 300 mg/l)) was “synergy (FICI ≤ 0.5 = synergy)”.
Work on O=C(O)[C@@H](S)[C@@H](S)C(=O)O [DMSA, meso-dimercaptosuccinic acid] yielded an MIC ([1]; isolate D1, drug alone) of 600 µg/mL, an MIC ([2]; isolate D10, drug alone) of 600 µg/mL and an MIC ([3]; isolate D11, drug alone) of 600 µg/mL. It also gave an MIC ([4]; isolate D12, drug alone) of 600 µg/mL, an MIC ([5]; isolate D13, drug alone) of 700 µg/mL and an MIC ([6]; isolate D14, drug alone) of 900 µg/mL. It also gave an MIC ([7]; isolate D15, drug alone) of 500 µg/mL, an MIC ([8]; isolate D16, drug alone) of 600 µg/mL and an MIC ([9]; isolate D17, drug alone) of 700 µg/mL. For the same compound, the MIC ([10]; isolate D18, drug alone) was 600 µg/mL, the MIC ([11]; isolate D19, drug alone) was 600 µg/mL and the MIC ([12]; isolate D2, drug alone) was 600 µg/mL. For the same compound, the MIC ([13]; isolate D20, drug alone) was 700 µg/mL, the MIC ([14]; isolate D21, drug alone) was 700 µg/mL and the MIC ([15]; isolate D22, drug alone) was 700 µg/mL. The MIC ([16]; isolate D23, drug alone) was 700 µg/mL, the MIC ([17]; isolate D24, drug alone) was 600 µg/mL and the MIC ([18]; isolate D25, drug alone) was 600 µg/mL. The MIC ([19]; isolate D26, drug alone) was 700 µg/mL, the MIC ([20]; isolate D27, drug alone) was 800 µg/mL and the MIC ([21]; isolate D28, drug alone) was 600 µg/mL. It also gave an MIC ([22]; isolate D29, drug alone) of 800 µg/mL, an MIC ([23]; isolate D3, drug alone) of 700 µg/mL and an MIC ([24]; isolate D30, drug alone) of 800 µg/mL. It also gave an MIC ([25]; isolate D31, drug alone) of 1000 µg/mL, an MIC ([26]; isolate D32, drug alone) of 700 µg/mL and an MIC ([27]; isolate D4, drug alone) of 900 µg/mL. It also gave an MIC ([28]; isolate D5, drug alone) of 800 µg/mL, an MIC ([29]; isolate D6, drug alone) of 800 µg/mL and an MIC ([30]; isolate D7, drug alone) of 800 µg/mL. For the same compound, the MIC ([31]; isolate D8, drug alone) was 500 µg/mL, the MIC ([32]; isolate D9, drug alone) was 700 µg/mL and the “MIC to DMSA alone” value ([33]; all isogenic strains) was 900 µg/mL.
